This is an account of results in patent publication US4514573A, “Isoprenylamine derivatives” (priority 1981, dated 1985).

In one series the test system is vaccinia virus. Briefly: animal or person. It counts as in vivo, ICR female mice. To be noted: Orthopoxvirus vaccinia, in Mus musculus, ip, 192 h, read-out: Prevention from vaccinia infection (Pock inhibition rate %).
Series [1] is described as follows: Toxicity (50% lethal dose, intravenous). The note with it: mouse, in vivo, ddY male mice 20-25 g, read-out: LD50 (Intravenously administered mg/kg). From the text:
Using ddY male mice weighing 20-25 g, 50% lethal dose of each test compound when intravenously administered was obtained, the results of which are shown in Table 5.

Series [2] relates to Human interferon; normal diploid cells (fibroblast). The series can be described thus: Human interferon-inducing activity (in vitro), 3H-uridine-uptake inhibition. The note with it: 25 n molar suspension. It counts as cell-based. The protocol:
Interferon was induced according to the method of Edward A. Havell et al. by treating normal diploid cells (fibroblast) originated from human being with each test compound in the form of ethanol solution diluted with PBS (-) (25 n molar suspension). Using the radioisotope microassay method of H. Ishitsuka et al., interferon was measured in terms of 3H-uridine-uptakeinhibition rate.

With `COc1ccc(CNCC=C(C)CCC=C(C)CCC=C(C)CCC=C(C)CCC=C(C)CCC=C(C)CCC=C(C)CCC=C(C)CCC=C(C)C)cc1OC` [drawing 40], in the series with vaccinia virus, the inhibition in vivo at 50 mg/kg worked out at 54.1%.

Turning to `CC(C)=CCCC(C)=CCCC(C)=CCCC(C)=CCCC(C)=CCCC(C)=CCCC(C)=CCCC(C)=CCCC(C)=CCCC(C)=CCNc1ccc(C(=O)O)cc1` [drawing 26], the inhibition in vivo at 50 mg/kg in the series with vaccinia virus was found to be 15%.

Take `CC(C)=CCCC(C)=CCCC(C)=CCCC(C)=CCCC(C)=CCCC(C)=CCCC(C)=CCCC(C)=CCCC(C)=CCCC(C)=CCNCc1ccc(C)cc1` [drawing 31]: the inhibition in vivo at 50 mg/kg with vaccinia virus was 44.8%.

For the molecule `COc1ccc(CNCC=C(C)CCC=C(C)CCC=C(C)CCC=C(C)CCC=C(C)CCC=C(C)CCC=C(C)CCC=C(C)CCC=C(C)CCC=C(C)C)cc1` [drawing 68], the LD50 in series [1] was found to be 68 mg/kg.

Turning to `COc1ccc(CNCC=C(C)CCC=C(C)CCC=C(C)CCC=C(C)CCC=C(C)CCC=C(C)CCC=C(C)CCC=C(C)CCC=C(C)CCC=C(C)C)cc1` [drawing 39], the inhibition in vivo at 50 mg/kg in the series with vaccinia virus stood at 58.8%.

For the molecule `CC(C)=CCCC(C)=CCCC(C)=CCCC(C)=CCCC(C)=CCCC(C)=CCCC(C)=CCCC(C)=CCCC(C)=CCCC(C)=CCNCc1ccc(C)cc1` [drawing 63], the LD50 in series [1] came to 123 mg/kg.

`COc1ccc(CNC/C=C(\C)CCC=C(C)C)cc1OC`: in the series on vaccinia virus, the inhibition in vivo at 50 mg/kg is 10%.

For `CC(C)=CCCC(C)=CCCC(C)=CCCC(C)=CCCC(C)=CCCC(C)=CCCC(C)=CCCC(C)=CCCC(C)=CCCC(C)=CCNc1ccc(C(=O)O)cc1` [drawing 71], the “Human interferon 3H uridine-uptake inhibition rate %” value in series [2] is recorded as 12.7%.

Regarding `CC(C)=CCCC(C)=CCCC(C)=CCCC(C)=CCCC(C)=CCCC(C)=CCCC(C)=CCCC(C)=CCCC(C)=CCCC(C)=CCNCc1cccc2ccccc12` [drawing 30], the inhibition in vivo at 50 mg/kg in the series with vaccinia virus is 21.6%.

With `CC(C)=CCCC(C)=CCCC(C)=CCCC(C)=CCCC(C)=CCCC(C)=CCCC(C)=CCCC(C)=CCCC(C)=CCCC(C)=CCNCCCCc1ccccc1` [drawing 36], the inhibition in vivo at 50 mg/kg in the series with vaccinia virus turned out to be 40.3%.

For `CC(C)=CCCC(C)=CCCC(C)=CCCC(C)=CCCC(C)=CCCC(C)=CCCC(C)=CCCC(C)=CCCC(C)=CCCC(C)=CCNc1ccc(C(=O)O)cc1` [drawing 59], the LD50 in series [1] worked out at 27.7 mg/kg.

With `COc1ccc(CNCC=C(C)CCC=C(C)CCC=C(C)CCC=C(C)CCC=C(C)CCC=C(C)CCC=C(C)CCC=C(C)CCC=C(C)C)cc1OC` [drawing 83], the “Human interferon 3H uridine-uptake inhibition rate %” value in series [2] came to 86.9%.

As to `CC(C)=CCCC(C)=CCCC(C)=CCCC(C)=CCCC(C)=CCCC(C)=CCCC(C)=CCCC(C)=CCCC(C)=CCCC(C)=CCNCc1cccc(CN)c1` [drawing 41], in the series on vaccinia virus, the inhibition in vivo at 50 mg/kg is 91.4%.

As to `CC(C)=CCCC(C)=CCCC(C)=CCCC(C)=CCCC(C)=CCCC(C)=CCCC(C)=CCCC(C)=CCCC(C)=CCCC(C)=CCNC(c1ccccc1)c1ccccc1` [drawing 66], the LD50 in series [1] is 1180 mg/kg.

Regarding `CC(C)=CCCC(C)=CCCC(C)=CCCC(C)=CCCC(C)=CCCC(C)=CCCC(C)=CCCC(C)=CCCC(C)=CCCC(C)=CCNCc1cccc2ccccc12` [drawing 75], the “Human interferon 3H uridine-uptake inhibition rate %” value in series [2] was 13.7%.

Regarding `COc1cccc(CNCC=C(C)CCC=C(C)CCC=C(C)CCC=C(C)CCC=C(C)CCC=C(C)CCC=C(C)CCC=C(C)CCC=C(C)CCC=C(C)C)c1OC` [drawing 85], the “Human interferon 3H uridine-uptake inhibition rate %” value in series [2] is listed as 26.6%.

Regarding `CC(C)=CCCC(C)=CCCC(C)=CCCC(C)=CCCC(C)=CCCC(C)=CCCC(C)=CCCC(C)=CCCC(C)=CCCC(C)=CCNCC(O)c1ccccc1` (stereo not shown) [drawing 86], the “Human interferon 3H uridine-uptake inhibition rate %” value in series [2] came out at 37.6%.

`COc1ccc(CNCC=C(C)CCC=C(C)CCC=C(C)CCC=C(C)CCC=C(C)CCC=C(C)CCC=C(C)CCC=C(C)CCC=C(C)C)cc1OC` [drawing 69]: the LD50 in series [1] was determined as 26 mg/kg.

Take `CC(C)=CCCC(C)=CCCC(C)=CCCC(C)=CCCC(C)=CCCC(C)=CCCC(C)=CCCC(C)=CCCC(C)=CCCC(C)=CCNCc1ccc([N+](=O)[O-])cc1` [drawing 74]: the “Human interferon 3H uridine-uptake inhibition rate %” value in series [2] is on record as 23.6%.

On to `CC(C)=CCCC(C)=CCCC(C)=CCCC(C)=CCCC(C)=CCCC(C)=CCCC(C)=CCCC(C)=CCCC(C)=CCCC(C)=CCNCc1ccc(Cl)cc1` [drawing 32], for which the inhibition in vivo at 50 mg/kg in the series on vaccinia virus turned out to be 34%.

As to `CC(C)=CCCC(C)=CCCC(C)=CCCC(C)=CCCC(C)=CCCC(C)=CCCC(C)=CCCC(C)=CCCC(C)=CCCC(C)=CCNc1ccc(C(=O)O)c(O)c1` [drawing 60], the LD50 in series [1] amounted to 45 mg/kg.

For the molecule `CC(C)=CCCC(C)=CCCC(C)=CCCC(C)=CCCC(C)=CCCC(C)=CCCC(C)=CCCC(C)=CCCC(C)=CCCC(C)=CCNCCc1ccc(N)cc1` [drawing 35], the inhibition in vivo at 50 mg/kg in the series with vaccinia virus turned out to be 64.4%.

With `CC(C)=CCCC(C)=CCCC(C)=CCCC(C)=CCCC(C)=CCCC(C)=CCCC(C)=CCCC(C)=CCCC(C)=CCCC(C)=CCNCC(O)c1ccccc1` (stereo not shown) [drawing 43], the inhibition in vivo at 50 mg/kg with vaccinia virus worked out at 64.4%.

Regarding `CC(C)=CCCC(C)=CCCC(C)=CCCC(C)=CCCC(C)=CCCC(C)=CCCC(C)=CCCC(C)=CCCC(C)=CCCC(C)=CCNCCc1ccc(N)cc1` [drawing 67], in series [1], the LD50 was determined as 28 mg/kg.

Consider `CC(C)=CCCC(C)=CCCC(C)=CCCC(C)=CCCC(C)=CCCC(C)=CCCC(C)=CCCC(C)=CCCC(C)=CCCC(C)=CCNc1ccc(C(=O)O)c(O)c1` [drawing 27], for which, in the series on vaccinia virus, the inhibition in vivo at 50 mg/kg came out at 42.9%.

For `CC(C)=CCCC(C)=CCCC(C)=CCCC(C)=CCCC(C)=CCCC(C)=CCCC(C)=CCCC(C)=CCCC(C)=CCCC(C)=CCNCCCc1ccccc1` [drawing 73], the “Human interferon 3H uridine-uptake inhibition rate %” value in series [2] stood at 17.7%.

Regarding `COc1ccc(CCNCC=C(C)CCC=C(C)CCC=C(C)CCC=C(C)CCC=C(C)CCC=C(C)CCC=C(C)CCC=C(C)CCC=C(C)CCC=C(C)C)cc1OC` [drawing 37], in the series on vaccinia virus, the inhibition in vivo at 50 mg/kg amounted to 68.1%.

With `CC(C)=CCCC(C)=CCCC(C)=CCCC(C)=CCCC(C)=CCCC(C)=CCCC(C)=CCCC(C)=CCCC(C)=CCCC(C)=CCNCc1ccc([N+](=O)[O-])cc1` [drawing 61], in series [1], the LD50 was greater than 269 mg/kg.

Regarding `COc1cc(CNCC=C(C)CCC=C(C)CCC=C(C)CCC=C(C)CCC=C(C)CCC=C(C)CCC=C(C)CCC=C(C)CCC=C(C)CCC=C(C)C)ccc1O` [drawing 81], the “Human interferon 3H uridine-uptake inhibition rate %” value in series [2] is reported as 41.9%.

Take `CC(C)=CCCC(C)=CCCC(C)=CCCC(C)=CCCC(C)=CCCC(C)=CCCC(C)=CCCC(C)=CCCC(C)=CCCC(C)=CCNCc1ccc(Cl)cc1` [drawing 64]: the LD50 in series [1] was determined as 371 mg/kg.

Consider `COc1ccc(CCNCC=C(C)CCC=C(C)CCC=C(C)CCC=C(C)CCC=C(C)CCC=C(C)CCC=C(C)CCC=C(C)CCC=C(C)CCC=C(C)C)cc1OC` [drawing 80], for which the “Human interferon 3H uridine-uptake inhibition rate %” value in series [2] was 32.5%.

As for `COc1ccc(CNCC=C(C)CCCC(C)CCCC(C)CCCC(C)C)cc1OC` (stereo not shown) [drawing 87], in series [2], the “Human interferon 3H uridine-uptake inhibition rate %” value is on record as 1.8%.

On to `COc1cc(CNCC=C(C)CCC=C(C)CCC=C(C)CCC=C(C)CCC=C(C)CCC=C(C)CCC=C(C)CCC=C(C)CCC=C(C)C)cc(OC)c1OC`, for which the “Human interferon 3H uridine-uptake inhibition rate %” value in series [2] amounted to 21.5%.

Consider `CC(C)=CCCC(C)=CCCC(C)=CCCC(C)=CCCC(C)=CCCC(C)=CCCC(C)=CCCC(C)=CCCC(C)=CCCC(C)=CCNC(c1ccccc1)c1ccccc1` [drawing 34], for which, in the series with vaccinia virus, the inhibition in vivo at 50 mg/kg stood at 14.8%.

`CC(C)=CCCC(C)=CCCC(C)=CCCC(C)=CCCC(C)=CCCC(C)=CCCC(C)=CCCC(C)=CCCC(C)=CCCC(C)=CCNCc1ccc(C)cc1` [drawing 76]: the “Human interferon 3H uridine-uptake inhibition rate %” value in series [2] was 91.1%.

Regarding `COc1ccc(CNCC=C(C)CCC=C(C)CCC=C(C)CCC=C(C)CCC=C(C)CCC=C(C)CCC=C(C)CCC=C(C)CCC=C(C)CCC=C(C)C)cc1` [drawing 82], in series [2], the “Human interferon 3H uridine-uptake inhibition rate %” value was 61.4%.

`CC(C)=CCCC(C)=CCCC(C)=CCCC(C)=CCCC(C)=CCCC(C)=CCCC(C)=CCCC(C)=CCCC(C)=CCCC(C)=CCNCc1cccc(CN)c1` [drawing 84]: the “Human interferon 3H uridine-uptake inhibition rate %” value in series [2] worked out at 20.2%.

With `CC(C)=CCCC(C)=CCCC(C)=CCCC(C)=CCCC(C)=CCCC(C)=CCCC(C)=CCCC(C)=CCCC(C)=CCCC(C)=CCNc1ccc(C(=O)O)c(O)c1` [drawing 72], the “Human interferon 3H uridine-uptake inhibition rate %” value in series [2] is given as 39.8%.

In the case of `CC(C)=CCCC(C)=CCCC(C)=CCCC(C)=CCCC(C)=CCCC(C)=CCCC(C)=CCCC(C)=CCCC(C)=CCCC(C)=CCNCc1ccc(Cl)cc1` [drawing 77], the “Human interferon 3H uridine-uptake inhibition rate %” value in series [2] worked out at 75.7%.

Regarding `COc1cccc(CNCC=C(C)CCC=C(C)CCC=C(C)CCC=C(C)CCC=C(C)CCC=C(C)CCC=C(C)CCC=C(C)CCC=C(C)CCC=C(C)C)c1OC` [drawing 42], the inhibition in vivo at 50 mg/kg in the series with vaccinia virus turned out to be 32.5%.

In the case of `COc1cc(CNCC=C(C)CCC=C(C)CCC=C(C)CCC=C(C)CCC=C(C)CCC=C(C)CCC=C(C)CCC=C(C)CCC=C(C)CCC=C(C)C)ccc1O` [drawing 38], the inhibition in vivo at 50 mg/kg in the series with vaccinia virus worked out at 67.1%.

`COc1ccc(CNCC=C(C)CCC=C(C)CCC=C(C)CCC=C(C)CCC=C(C)CCC=C(C)CCC=C(C)CCC=C(C)CCC=C(C)CCC=C(C)C)cc1OC` [drawing 33]: in the series with vaccinia virus, the inhibition in vivo at 50 mg/kg worked out at 35.4%.

In the case of `CC(C)=CCCC(C)=CCCC(C)=CCCC(C)=CCCC(C)=CCCC(C)=CCCC(C)=CCCC(C)=CCCC(C)=CCCC(C)=CCNCCCCc1ccccc1` [drawing 79], the “Human interferon 3H uridine-uptake inhibition rate %” value in series [2] is 67.2%.

As to `CC(C)=CCCC(C)=CCCC(C)=CCCC(C)=CCCC(C)=CCCC(C)=CCCC(C)=CCCC(C)=CCCC(C)=CCCC(C)=CCNCc1ccc([N+](=O)[O-])cc1` [drawing 29], the inhibition in vivo at 50 mg/kg in the series with vaccinia virus amounted to 47.7%.

With `CC(C)=CCCC(C)=CCCC(C)=CCCC(C)=CCCC(C)=CCCC(C)=CCCC(C)=CCCC(C)=CCCC(C)=CCCC(C)=CCNCCCc1ccccc1` [drawing 28], the inhibition in vivo at 50 mg/kg in the series on vaccinia virus was 68.1%.

In the case of `COc1ccc(CNCC=C(C)CCC=C(C)CCC=C(C)CCC=C(C)CCC=C(C)CCC=C(C)CCC=C(C)CCC=C(C)CCC=C(C)CCC=C(C)C)cc1OC` [drawing 78], the “Human interferon 3H uridine-uptake inhibition rate %” value in series [2] was 77.8%.
